Assay [1] relates to Tyrosine-protein kinase ABL1 (Homo sapiens), P00519 [Q252H]. Particulars: at 10 µM.
For assay [2], the target named is Atypical kinase COQ8A, mitochondrial (Homo sapiens, UniProt Q8NI60). Description: Selectivity interaction (Ambit KINOMEscan and KiNATiv profiling in Jurkat cells) EUB0000090b ADCK3. In kind it is cell-based. Particulars: at 1 µM.
For assay [3], the target named is Cyclin-dependent kinase 9 (Homo sapiens, UniProt P50750). Description: Selectivity interaction (KinomeScan (DiscoverX)) EUB0001079a CDK9. Particulars: at 1 µM.
Sequence of Cyclin-dependent kinase 9 (P50750 whole entry): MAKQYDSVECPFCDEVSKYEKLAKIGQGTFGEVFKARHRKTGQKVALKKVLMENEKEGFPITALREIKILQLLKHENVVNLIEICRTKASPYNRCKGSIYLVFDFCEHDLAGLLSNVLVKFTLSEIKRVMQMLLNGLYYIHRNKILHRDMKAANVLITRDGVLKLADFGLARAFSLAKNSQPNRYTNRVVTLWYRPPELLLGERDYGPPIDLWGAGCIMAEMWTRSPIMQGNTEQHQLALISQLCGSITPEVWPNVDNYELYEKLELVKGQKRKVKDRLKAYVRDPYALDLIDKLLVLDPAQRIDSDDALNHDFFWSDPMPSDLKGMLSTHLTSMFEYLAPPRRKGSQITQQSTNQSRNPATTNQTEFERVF
Assay [4] has as its target Glycogen synthase kinase-3 beta (Homo sapiens, UniProt P49841). Description: Selectivity interaction (Millipore kinase profiler) EUB0000124b GSK3B. Particulars: at 10 µM.
In assay [5] the target is T1, Ephrin type-B receptor 6 (Homo sapiens) (UniProt O15197).
T1 sequence (whole entry): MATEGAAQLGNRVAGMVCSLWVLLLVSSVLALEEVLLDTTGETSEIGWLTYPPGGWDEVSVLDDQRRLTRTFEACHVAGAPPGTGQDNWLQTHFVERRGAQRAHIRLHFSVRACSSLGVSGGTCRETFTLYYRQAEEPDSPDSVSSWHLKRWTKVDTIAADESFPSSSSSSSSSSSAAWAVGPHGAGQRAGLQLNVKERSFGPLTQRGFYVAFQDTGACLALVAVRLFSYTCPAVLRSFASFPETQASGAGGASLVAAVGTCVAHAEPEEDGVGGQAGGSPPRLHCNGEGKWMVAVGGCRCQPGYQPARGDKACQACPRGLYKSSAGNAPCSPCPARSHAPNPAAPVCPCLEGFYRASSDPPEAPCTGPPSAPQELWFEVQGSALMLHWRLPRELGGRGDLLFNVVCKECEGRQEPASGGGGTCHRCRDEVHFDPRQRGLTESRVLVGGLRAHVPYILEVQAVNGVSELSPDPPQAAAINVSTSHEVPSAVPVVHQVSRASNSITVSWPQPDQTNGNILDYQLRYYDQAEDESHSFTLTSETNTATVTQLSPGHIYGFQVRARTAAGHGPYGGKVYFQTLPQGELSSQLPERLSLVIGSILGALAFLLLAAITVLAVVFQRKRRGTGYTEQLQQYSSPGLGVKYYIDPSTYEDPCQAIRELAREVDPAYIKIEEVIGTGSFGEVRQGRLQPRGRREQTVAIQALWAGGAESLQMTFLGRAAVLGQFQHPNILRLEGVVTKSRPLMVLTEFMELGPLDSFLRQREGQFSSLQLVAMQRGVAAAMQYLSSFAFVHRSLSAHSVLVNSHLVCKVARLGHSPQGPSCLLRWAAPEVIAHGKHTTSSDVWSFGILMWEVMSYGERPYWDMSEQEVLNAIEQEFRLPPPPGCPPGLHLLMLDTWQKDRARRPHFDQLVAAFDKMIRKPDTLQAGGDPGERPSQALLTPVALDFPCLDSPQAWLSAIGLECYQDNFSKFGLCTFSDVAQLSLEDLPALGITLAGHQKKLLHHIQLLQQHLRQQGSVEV
The experiment in a line: Selectivity interaction (KinomeScan (DiscoverX)) EUB0000655a EPHB6. Particulars: at 10 µM.

The subject of assay [6] is Receptor-type tyrosine-protein kinase FLT3 (Homo sapiens), P36888 [UNDEFINED MUTATION]. Description: Selectivity interaction (LanthaScreen Eu Kinase Binding Assay) EUB0001632a FLT3. Particulars: at 10 µM. On the technique in general: TR-FRET usually uses a lanthanide donor and a delayed reading to cut background.
The target in assay [7] is T2, Activin receptor type-1B (Homo sapiens) (UniProt P36896).
T2 sequence (whole entry): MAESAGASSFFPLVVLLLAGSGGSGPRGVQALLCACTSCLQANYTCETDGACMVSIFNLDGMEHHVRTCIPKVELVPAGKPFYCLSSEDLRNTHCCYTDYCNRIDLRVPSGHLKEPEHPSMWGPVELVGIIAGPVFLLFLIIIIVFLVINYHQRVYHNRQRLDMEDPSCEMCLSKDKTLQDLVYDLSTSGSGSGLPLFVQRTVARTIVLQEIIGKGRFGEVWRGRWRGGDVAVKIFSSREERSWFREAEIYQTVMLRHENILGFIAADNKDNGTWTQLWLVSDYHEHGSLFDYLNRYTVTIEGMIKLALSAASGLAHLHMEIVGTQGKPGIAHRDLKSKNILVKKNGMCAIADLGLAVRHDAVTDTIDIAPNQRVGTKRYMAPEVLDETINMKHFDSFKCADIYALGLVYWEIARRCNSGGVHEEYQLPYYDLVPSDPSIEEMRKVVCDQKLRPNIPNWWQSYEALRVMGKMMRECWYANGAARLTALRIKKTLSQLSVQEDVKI
The experiment in a line: Selectivity interaction (Kinase panel (Invitrogen)) EUB0000639a ACVR1B. Particulars: at 200 nM.

The subject of assay [8] is Tyrosine-protein kinase ABL1 (Homo sapiens), P00519 [Q252H]. The experiment in a line: Selectivity interaction (KinomeScan (DiscoverX)) EUB0000229b ABL1. Particulars: at 1 µM.

Sequence of Glycogen synthase kinase-3 beta (P49841 whole entry, looked up): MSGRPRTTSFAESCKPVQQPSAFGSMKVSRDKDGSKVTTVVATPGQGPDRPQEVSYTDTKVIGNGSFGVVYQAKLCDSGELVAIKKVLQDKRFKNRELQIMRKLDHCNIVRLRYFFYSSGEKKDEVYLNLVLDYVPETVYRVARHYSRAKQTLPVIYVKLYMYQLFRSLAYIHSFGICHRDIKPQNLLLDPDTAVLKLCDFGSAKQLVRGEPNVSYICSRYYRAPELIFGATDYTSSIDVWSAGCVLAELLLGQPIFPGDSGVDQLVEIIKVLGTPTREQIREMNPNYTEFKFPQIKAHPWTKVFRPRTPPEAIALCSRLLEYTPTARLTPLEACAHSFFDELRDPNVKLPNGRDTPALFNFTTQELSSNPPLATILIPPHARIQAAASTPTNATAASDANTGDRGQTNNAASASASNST
Sequence of Atypical kinase COQ8A, mitochondrial (Q8NI60 163-647 limits assumed): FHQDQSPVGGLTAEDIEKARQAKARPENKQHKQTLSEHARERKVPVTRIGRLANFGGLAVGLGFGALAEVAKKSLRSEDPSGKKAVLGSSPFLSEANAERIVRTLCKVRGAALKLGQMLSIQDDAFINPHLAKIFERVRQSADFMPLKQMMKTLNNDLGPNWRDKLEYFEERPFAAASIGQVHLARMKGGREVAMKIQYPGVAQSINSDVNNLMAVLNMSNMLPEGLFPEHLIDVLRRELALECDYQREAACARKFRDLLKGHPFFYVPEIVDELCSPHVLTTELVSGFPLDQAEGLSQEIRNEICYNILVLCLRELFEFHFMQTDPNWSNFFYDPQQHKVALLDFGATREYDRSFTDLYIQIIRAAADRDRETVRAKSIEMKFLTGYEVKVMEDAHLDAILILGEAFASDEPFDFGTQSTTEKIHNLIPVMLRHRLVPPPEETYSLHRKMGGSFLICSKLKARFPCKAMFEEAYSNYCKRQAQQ
Sequence of Receptor-type tyrosine-protein kinase FLT3 (Homo sapiens), P36888 [UNDEFINED MUTATION] (P36888 whole entry, looked up, stated change not applied): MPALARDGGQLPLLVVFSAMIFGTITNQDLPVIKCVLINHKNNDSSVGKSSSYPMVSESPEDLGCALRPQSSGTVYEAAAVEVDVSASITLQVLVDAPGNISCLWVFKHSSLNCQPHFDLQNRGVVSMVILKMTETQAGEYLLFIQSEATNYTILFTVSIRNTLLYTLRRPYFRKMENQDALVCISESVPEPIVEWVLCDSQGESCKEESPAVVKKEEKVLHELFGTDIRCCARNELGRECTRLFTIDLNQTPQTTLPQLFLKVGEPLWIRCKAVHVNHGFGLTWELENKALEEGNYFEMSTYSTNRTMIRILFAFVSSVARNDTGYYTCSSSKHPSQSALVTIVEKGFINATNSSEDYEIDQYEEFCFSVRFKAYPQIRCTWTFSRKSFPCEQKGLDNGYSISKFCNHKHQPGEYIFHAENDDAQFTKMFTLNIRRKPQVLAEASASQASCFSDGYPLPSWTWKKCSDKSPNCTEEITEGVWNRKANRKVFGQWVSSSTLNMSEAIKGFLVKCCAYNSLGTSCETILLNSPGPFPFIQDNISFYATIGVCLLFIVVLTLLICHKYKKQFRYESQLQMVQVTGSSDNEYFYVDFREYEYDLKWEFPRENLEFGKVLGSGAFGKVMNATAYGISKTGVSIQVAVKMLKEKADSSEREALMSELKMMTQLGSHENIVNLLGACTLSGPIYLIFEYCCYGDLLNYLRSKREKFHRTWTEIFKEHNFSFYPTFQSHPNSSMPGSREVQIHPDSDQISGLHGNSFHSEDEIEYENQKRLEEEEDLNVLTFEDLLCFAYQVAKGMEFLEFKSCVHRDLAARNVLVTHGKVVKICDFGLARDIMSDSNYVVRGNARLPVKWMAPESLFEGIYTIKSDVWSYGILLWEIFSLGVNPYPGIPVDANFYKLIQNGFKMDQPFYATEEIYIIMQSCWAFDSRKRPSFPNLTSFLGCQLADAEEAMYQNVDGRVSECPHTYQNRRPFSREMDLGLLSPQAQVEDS

On to `Cc1cc([C@@H](C)Nc2ccccc2C(=O)O)c2nc(N3CCOCC3)cc(=O)n2c1` [AZD-6482], for which the % of control in assay [1] is 100%.
For `CN(C)C/C=C/C(=O)Nc1ccc(C(=O)N2CCCC(Nc3ncc(Cl)c(-c4c[nH]c5ccccc45)n3)C2)cc1` (stereo not drawn), the % of control in assay [2] is 90%.
`Nc1cnc(N2CCc3cc(S(=O)(=O)Nc4c(F)cc(Cl)cc4F)cc(N4CCCC4=O)c32)nc1` [TP-020n]: the % of control in assay [3] turned out to be 100%.
Consider `CC(=O)Nc1cccc(-n2c(=O)n(C3CC3)c(=O)c3c(Nc4ccc(I)cc4F)n(C)c(=O)c(C)c32)c1`, for which, in assay [4], the % of control stood at 98%.
In the case of `CN(C)CCOc1ccc(-c2nc(-c3ccncc3)c(-c3ccc4c(c3)CC/C4=N\O)[nH]2)cc1`, the % of control in assay [5] turned out to be 34%.
Regarding `Cn1cc(-n2cnc3c(NCc4nc5cc(Cl)c(Cl)cc5[nH]4)nc(N4CCOCC4)nc32)cn1`, in assay [6], the % of inhibition is -1.89%.
Turning to `CC[C@@H]1[C@H](F)C(=O)N[C@@H]1COc1nccc2cc(C(N)=O)c(OC)cc12` [ZIMLOVISERTIB], the % of inhibition in assay [7] was 2.54%.
`COc1cc(N(C)c2ccnc3ccc(C(F)(F)F)cc23)cc(OC)c1OC`: the % binding in assay [8] is 91%.

For the origin of these results see ChEMBL document CHEMBL5465560, “Selectivity Literature for EUbOPEN Chemogenomic Library” (2024).
